The target of assay [1] is T1, interaction between the recombinant extracellular domain (ECD) of PD-1 and native cell-bound PD-L1 (Homo sapiens, UniProt Q9NZQ7).
T1 construct: expressed in transfected cells
As to the kind of experiment: CHO/PD-L1 cell capture assay. The format is cell-based. The settings on record: CHO cells overexpressing PD-L1, pre-incubated 1 hr with compound, captured on biotinylated Fc-PD-1 coated plates, 75 min at room temperature. The protocol: EC50-CHO/PD-L1-Capture Assay:
Compounds were tested in a cell capture assay to determine if they can specifically block the interaction between the recombinant extracellular domain (ECD) of PD-1 and native cell-bound PD-L1. Binding affinity of stable CHO cells overexpressing PD-L1 with its cognate recombinant ligand coated on plates was measured by counting the number of ‘captured’ cells. High-capacity streptavidin- coated plates were incubated with biotylated-Fc-PD-1 for 2 hours in PBS. Unbound ligand was washed out. CHO-PD-L1 cells (resuspended in PBS pH 7.4, 0.5 mM EDTA, and 2% bovine serum albumin) were pre-incubated for 1 hr with compound, dispensed into each PD-1 ECD coated well and then incubated for 75 min at room temperature. To stop the capture assay, a fixative/staining solution (final concentrations are 1.3% glutaraldehyde and 1.67 μM Draq5) was gently added to the cells and incubated for 2 hrs at room temperature. Unbound cells were then washed out and ‘captured’ cells were enumerated using a high-content microscopy system. EC50 values were calculated from the fit of the dose-response curves to a four-parameter equation. Representative data are shown below in Table 2.

Another assay addresses T2, PD-1/PD-L1 interaction (Homo sapiens, UniProt Q9NZQ7).
T2 construct: expressed in transfected cells; host or cells: CHO cells (aAPC-PD-L1) co-cultured with Jurkat cells overexpressing PD-1 and an NFAT-luciferase reporter
As to the kind of experiment: PD-1/PD-L1 NFAT reporter co-culture assay. The format is cell-based. Conditions: Jurkat PD-1 NFAT-luciferase cells co-cultured with aAPC-PD-L1 CHO cells, 6 hrs at 37° C.; read-out: EC50 NFAT Luciferase. The method in brief:
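Compounds are scored by restoration of NFAT-luciferase signal in PD-1-expressing Jurkat cells cultured 6 h at 37 °C on CHO cells presenting anti-CD3 and PD-L1; EC50 values derive from four-parameter curve fitting.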

The target in the next assay is PD-1/PD-L1 (Homo sapiens, UniProt Q9NZQ7). As to the kind of experiment: PD-1/PD-L1 biochemical protein-protein interaction assay (ALPHA). The format is binding. The settings on record: 0.3 nM His tagged PD-L1, 2.5 nM biotinylated Fc-PD-1, 60 minutes at 25° C., read-out: IC50 PD-L1-PD-1 Alpha IC50-mono PD-L1-fcP-D1. The method in brief:
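His-PD-L1 ECD 0.3 nM + biotin-Fc-PD-1 2.5 nM (final), 25 mM Hepes pH 7.4, 150 mM NaCl, 3.4 mM EDTA; 60 min, 25° C; anti-His acceptor/streptavidin donor ALPHA beads; decreased signal = blocked binding; 4-parameter IC50.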

Another assay has as its target T3, PD-L1 (Homo sapiens, UniProt Q9NZQ7).
T3 construct: determine if they can specifically dimerize the extracellular domains of PD-L1
Briefly: PD-L1/PD-L1 dimerization biochemical protein-protein interaction assay (ALPHA). The format is binding. The settings on record: compound-induced PD-L1 dimerization, head prints '1 nM' (0.5 nM His-tagged PD-L1 and 0.5 nM FLAG-tagged PD-L1), read-out: AC50 PDL1 Dimer Alpha 1 nM. The method in brief:
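After 2 h at 25 °C with compound, His- and FLAG-tagged PD-L1 ECDs (each 0.5 nM final; 25 mM Hepes pH 7.4, 150 mM NaCl) were detected by sequential anti-His acceptor and anti-FLAG donor bead incubations. Dose-response curves fitted to four-parameter equation for AC50.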

SMILES strings stand for the structures. pEC50, pIC50: −log10 of the molar value.

T3 sequence (Q9NZQ7 19-238 limits assumed): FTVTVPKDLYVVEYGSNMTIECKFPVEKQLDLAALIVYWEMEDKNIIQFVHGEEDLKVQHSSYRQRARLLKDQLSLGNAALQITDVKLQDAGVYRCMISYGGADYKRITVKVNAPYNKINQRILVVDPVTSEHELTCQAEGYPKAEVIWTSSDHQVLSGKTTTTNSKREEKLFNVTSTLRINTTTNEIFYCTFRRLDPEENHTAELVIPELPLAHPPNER
T3 sequence (Q9NZQ7 19-238 limits assumed): as above
PD-1/PD-L1, sequence (Q9NZQ7 19-238 limits assumed): as above
T2 sequence (Q9NZQ7 19-290): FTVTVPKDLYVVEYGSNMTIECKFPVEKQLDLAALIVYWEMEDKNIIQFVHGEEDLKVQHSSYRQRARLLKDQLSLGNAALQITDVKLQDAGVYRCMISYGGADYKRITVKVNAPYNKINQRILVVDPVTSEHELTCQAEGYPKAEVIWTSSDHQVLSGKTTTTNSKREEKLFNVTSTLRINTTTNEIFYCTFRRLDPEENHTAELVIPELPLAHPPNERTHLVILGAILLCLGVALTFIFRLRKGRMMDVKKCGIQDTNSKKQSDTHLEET
T1 sequence (Q9NZQ7 19-290): as above

Usually pEC50 stands for −log10 of the EC50, conventionally taken in molar units. Turning to `COc1nc(O[C@H]2CCc3c(-c4cccc5c4CC[C@@H]5Oc4nc(OC)c(CNCC(=O)O)cc4Cl)cccc32)ccc1CNCC(=O)O` [Example 1, ((6-(((1S,1′S)-1′-((5-(((carboxymethyl)amino)methyl)-3-chloro-6-methoxypyridin-2-yl)oxy)-2,2′,3,3′-tetrahydro-1H,1′H-[4,4′-biinden]-1-yl)oxy)-2-methoxypyridin-3-yl)methyl)glycine], the negative-log EC50 (pEC50) is 6.42 in assay [1] and 6.29 at PD-1/PD-L1 interaction.

As for `COc1nc(O[C@H]2CCc3c(-c4cccc5c4CC[C@@H]5Oc4nc(OC)c(CNCC(=O)O)cc4Cl)cccc32)c(Cl)cc1CNCC(=O)O` [Example 2, 2,2′-((((((1S,1′S)-2,2′,3,3′-tetrahydro-1H,1′H-[4,4′-biindene]-1,1′-diyl)bis(oxy))bis(5-chloro-2-methoxypyridine-6,3-diyl))bis(methylene))bis(azanediyl))diacetic acid], the negative-log EC50 (pEC50) was 5.89 in assay [1] and 6.34 on PD-1/PD-L1 interaction.

For `COc1nc(O[C@H]2CCc3c(-c4cccc5c4CC[C@@H]5Oc4nc(OC)c(CNC[C@@H](O)CC(=O)O)cc4Br)cccc32)c(Br)cc1CNCCO` [Example 8, (S)-4-(((5-bromo-6-(((1S,1′S)-1′-((3-bromo-5-(((2-hydroxyethyl)amino)methyl)-6-methoxypyridin-2-yl)oxy)-2,2′,3,3′-tetrahydro-1H,1′H-[4,4′-biinden]-1-yl)oxy)-2-methoxypyridin-3-yl)methyl)amino)-3-hydroxybutanoic acid], the negative logarithm of the EC50 (pEC50) in assay [1] is 7.10; on PD-1/PD-L1 interaction, 6.54.

Regarding `COc1nc(O[C@H]2CCc3c(-c4cccc5c4CC[C@@H]5Oc4nc(OC)c(CNCCO)cc4Br)cccc32)c(Br)cc1CNCCO` [Example 10, 2,2′-((((((1S,1′S)-2,2′,3,3′-tetrahydro-1H,1′H-[4,4′-biindene]-1,1′-diyl)bis(oxy))bis(5-bromo-2-methoxypyridine-6,3-diyl))bis(methylene))bis(azanediyl))bis(ethan-1-ol)], the negative logarithm of the EC50 (pEC50) is 6.73 in assay [1] and 6.30 on PD-1/PD-L1 interaction.

The pIC50 is −log10 of the IC50, conventionally taken in molar units. A word on the AC50: it is the concentration giving half of the maximal activity seen. For `COc1nc(O[C@H]2CCc3c(-c4cccc(-c5ccc6c(c5)C[C@@H](N)C6)c4Cl)cccc32)c(Br)cc1CN[C@@](C)(CO)C(=O)O` [Example 784], on PD-1/PD-L1, the negative-log IC50 (pIC50) was 10.19. Moreover, the pEC50 at PD-1/PD-L1 interaction was 6.74. The AC50 at PD-L1 amounted to 28.9 nM.

As for `COc1nc(O[C@H]2CCc3c(-c4cccc(-c5ccc(C6=NCCN6)c(OC)n5)c4Cl)cccc32)c(Br)cc1CN1CCCC[C@H]1C(=O)O` [Example 785], on PD-1/PD-L1, the pIC50 is 10.19. Further, the pEC50 on PD-1/PD-L1 interaction is 7.18. Moreover, the concentration at half-maximal activity (AC50) on PD-L1 was found to be 16.1 nM.

For `COc1nc(O[C@H]2CCc3c(-c4cccc(-c5ccc(C6=NCCN6)c(OC)n5)c4Cl)cccc32)c(Br)cc1CNC(C)(C)C(=O)O` [Example 786], on PD-1/PD-L1, the negative logarithm of the IC50 (pIC50) is 10.19. For the same compound, at PD-1/PD-L1 interaction, the pEC50 is 7.07. Further, on PD-L1, the AC50 was determined as 12.2 nM.

Consider `COc1nc(O[C@H]2CCc3c(-c4cccc(-c5ccc(C6=NCCN6)c(OC)n5)c4Cl)cccc32)c(Br)cc1CNC[C@@H](O)CC(=O)O` [Example 787], for which, on PD-1/PD-L1, the pIC50 is 10.18. For the same compound, on PD-1/PD-L1 interaction, the pEC50 is 7.24. Moreover, the AC50 on PD-L1 is 35.4 nM.

Turning to `COc1nc(O[C@H]2CCc3c(-c4cccc(-c5ccc(C6=NCCN6)c(OC)n5)c4Cl)cccc32)c(Br)cc1CN[C@](C)(CO)C(=O)O` [Example 788], at PD-1/PD-L1, the pIC50 was 10.19. On PD-1/PD-L1 interaction, the pEC50 was 7.41. For the same compound, at PD-L1, the AC50 came to 11.8 nM.

In the case of `COc1nc(O[C@H]2CCc3c(-c4cccc(-c5ccc(C6=NCCN6)c(OC)n5)c4Cl)cccc32)c(Br)cc1CN[C@@](C)(CO)C(=O)O` [Example 789], the negative-log IC50 (pIC50) at PD-1/PD-L1 was 10.19. For the same compound, the negative logarithm of the EC50 (pEC50) at PD-1/PD-L1 interaction is 7.24. Further, the AC50 on PD-L1 turned out to be 17.9 nM.

On to `COc1nc(O[C@H]2CCc3c(-c4cccc(-c5ccc(CNC[C@@H]6CCC(=O)N6)c(F)c5)c4Cl)cccc32)c(Br)cc1CNC[C@@H]1CCC(=O)N1` [Example 790], for which the pIC50 at PD-1/PD-L1 is 9.06. The negative-log EC50 (pEC50) at PD-1/PD-L1 interaction is 7.08. In addition, the AC50 at PD-L1 was 75.7 nM.

With `COc1nc(O[C@H]2CCc3c(-c4cccc(-c5ccc(CNC[C@@H]6CCC(=O)N6)c(Cl)c5)c4Cl)cccc32)c(Br)cc1CNC[C@@H]1CCC(=O)N1` [Example 791], on PD-1/PD-L1, the negative-log IC50 (pIC50) was 8.55. Besides, the pEC50 on PD-1/PD-L1 interaction was 6.76. Besides, at PD-L1, the AC50 was found to be 206 nM.

With `COc1cc(-c2cccc(-c3cccc4c3CC[C@@H]4Oc3nc(OC)c(CNC[C@@H]4CCC(=O)N4)cc3Br)c2Cl)ccc1CNC[C@@H]1CCC(=O)N1` [Example 792], on PD-1/PD-L1, the pIC50 is 9.27. Further, on PD-1/PD-L1 interaction, the pEC50 is 7.40. In addition, the AC50 at PD-L1 is 22.7 nM.

In the case of `COc1nc(O[C@H]2CCc3c(-c4cccc(-c5ccc6c(c5)C[C@@H](N)C6)c4Cl)cccc32)ccc1CNC[C@@H]1CCC(=O)N1` [Example 793], the pIC50 at PD-1/PD-L1 was 8.76. For the same compound, on PD-1/PD-L1 interaction, the negative-log EC50 (pEC50) is 5.74. Further, on PD-L1, the AC50 came to 187 nM.

For the compound `COc1nc(O[C@H]2CCc3c(-c4cccc(-c5ccc6c(c5)C[C@@H](N)C6)c4Cl)cccc32)c(Br)cc1CNC[C@@H]1CCC(=O)N1` [Example 794], on PD-1/PD-L1, the pIC50 is 8.76. Further, on PD-1/PD-L1 interaction, the negative logarithm of the EC50 (pEC50) was 6.10. The AC50 at PD-L1 came out at 94.2 nM.

Consider `C[C@@](CO)(NCc1cc(Cl)c(O[C@H]2CCc3c(-c4cccc(-c5ccc6c(c5)CC(N)C6)c4Cl)cccc32)nc1OCc1cncc(C#N)c1)C(=O)O` (some centres unmarked) [Example 795], for which the negative logarithm of the IC50 (pIC50) on PD-1/PD-L1 was 10.19. The negative-log EC50 (pEC50) on PD-1/PD-L1 interaction is 7.39. Besides, the AC50 at PD-L1 amounted to 9.65 nM.

`COc1cc(O[C@H]2CCc3c(-c4cccc(-c5ccc(CN6CC7(CCC(=O)N7)C6)c(OC)n5)c4Cl)cccc32)c(Cl)cc1CNC[C@@H]1CCC(=O)N1` [Example 796]: the pIC50 at PD-1/PD-L1 was 9.12. Moreover, the negative logarithm of the EC50 (pEC50) on PD-1/PD-L1 interaction was 6.82. For the same compound, the concentration at half-maximal activity (AC50) on PD-L1 amounted to 228 nM.

`COc1nc(-c2cccc(-c3cccc4c3CC[C@@H]4Oc3nc(OCc4cc(C#N)cc(C#N)c4)c(CNC[C@@H](O)CC(=O)O)cc3Cl)c2Cl)ccc1CNC[C@@H]1CCC(=O)N1` [Example 797]: the negative-log IC50 (pIC50) at PD-1/PD-L1 was 10.19. For the same compound, on PD-1/PD-L1 interaction, the pEC50 is 7.52. The AC50 at PD-L1 worked out at 41.4 nM.

On to `COc1cc(-c2cccc(-c3cccc4c3CC[C@@H]4Oc3nc(OC)c(CNC[C@@H]4CCC(=O)N4)cc3Cl)c2Cl)nc(Cl)c1CNC[C@@H]1CCC(=O)N1` [Example 799], for which the negative-log IC50 (pIC50) on PD-1/PD-L1 was 9.47. Besides, the negative logarithm of the EC50 (pEC50) on PD-1/PD-L1 interaction is 6.78. Further, the AC50 at PD-L1 came to 150 nM.

As for `COc1nc(-c2cc(F)cc(-c3cccc4c3CC[C@@H]4Oc3ccc(CNC[C@@H]4CCC(=O)N4)c(OCc4cncc(C#N)c4)n3)c2Cl)ccc1CNC[C@@H]1CCC(=O)N1` [Example 800], the negative logarithm of the IC50 (pIC50) on PD-1/PD-L1 is 8.89. Moreover, on PD-1/PD-L1 interaction, the pEC50 was 6.61. Also, the AC50 on PD-L1 was 537 nM.

In the case of `N#Cc1cncc(COc2cc(O[C@H]3CCc4c(-c5cccc(-c6ccc7sc(CNC[C@@H]8CCC(=O)N8)nc7c6)c5Cl)cccc43)c(Cl)cc2CNC[C@@H]2CCC(=O)N2)c1` [Example 801], the negative-log IC50 (pIC50) at PD-1/PD-L1 is 8.01. Besides, the negative-log EC50 (pEC50) on PD-1/PD-L1 interaction is ≤ 4.30. Besides, the AC50 on PD-L1 was ≥ 10000 nM.

`N#Cc1cncc(COc2cc(O[C@H]3CCc4c(-c5cccc(-c6nc7ccc(CNC[C@@H]8CCC(=O)N8)cn7n6)c5Cl)cccc43)c(Cl)cc2CNC[C@@H]2CCC(=O)N2)c1` [Example 802]: the pIC50 at PD-1/PD-L1 was 10.08. In addition, the pEC50 on PD-1/PD-L1 interaction is 6.75. Besides, the AC50 on PD-L1 worked out at 55.5 nM.

Regarding `N#Cc1cncc(COc2nc(O[C@H]3CCc4c(-c5cccc(-c6nc7ccc(CNC[C@@H](O)CC(=O)O)cn7n6)c5Cl)cccc43)c(Cl)cc2CNC[C@@H](O)CC(=O)O)c1` [Example 803], the negative-log IC50 (pIC50) at PD-1/PD-L1 is 10.19. The negative-log EC50 (pEC50) on PD-1/PD-L1 interaction was 7.31. Moreover, the AC50 at PD-L1 was determined as 11.7 nM.

Source of the values: US12590062B2, “PD-1/PD-L1 inhibitors” (Gilead Sciences, Inc., priority 2017, dated 2026).
